According to patent publication US7632871B2, “Methods of making and methods of using antiseptic disinfectant, cosmetic and toiletries, medicine or food containing the same” (Mandom Corporation, priority 2002, dated 2009):

Columns and labels:
Assay type in all cases: cell-based
[1] = system: Escherichia coli IFO3972; test: Dual minimum inhibitory concentration (agar dilution MIC) of 1,2-octanediol combined with a fragrance component, Escherichia coli; set-up: key: ◯: There is synergistic action in the antibacterial effect.; Δ: There is additive action in the antibacterial effect.; ×: There is counteraction in the antibacterial effect; conditions: fragrance component combined with 1,2-octanediol (50:50 by weight mixture); same way as Embodiment 1, E. coli instead of P. aeruginosa
Description: (§1) For preparing bacteria, as to Staphylococcus aureus and Pseudomonas, they are incubated at 35° C. in the agar medium, and further incubated at 35° C. after transferred into the bouillon medium. The inoculating bacteria is prepared by diluting the obtained culture solution to about 10^8 inoculating cell/ml.
(§2) With a dilution solvent of ethyl cellosolve of 20 w/w %, 1,2-octanediol solution of 5, 4, 3, 2.5, 2.25, 2, 1.75, 1.5, 1.25 and 1 w/v % are prepared.
(§3) While, as to thymol and the 50:50 by weight mixture of 1,2-octanediol and thymol, the dilution series are prepared by doubling diluting the 20w/v % solution.
1 ml of each of the above-mentioned dilution series including the test material and 9 ml of the agar medium are introduced to each schales, and the above-mentioned inoculating bacteria was applied on each of the schales at the length of 1 cm. […]
(§4) The antibacterial effect in the case of mixing 1,2-octanediol and thymol was evaluated by the following evaluation criterion from dual minimum inhibitory concentration diagram in FIG. 2.
Manipulating each of citronellol and β-pinene for fragrance component in the same way as in Embodiment 1 using Escherichia coli IFO3972 instead of Pseudomonas aeruginosa IF013275, each dual minimum inhibitory concentration of FIGS. 6-7 was obtained. […] From the obtained result, the antibacterial effect was evaluated by the above-mentioned evaluation criterion.

[2] = system: Candida albicans IFO1594; test: Dual minimum inhibitory concentration (agar dilution MIC) of 1,2-octanediol combined with a fragrance component, Candida albicans; conditions: fragrance component combined with 1,2-octanediol (50:50 by weight mixture); agar medium, 25° C., growth judged after three days
Description: (§5) Candida albicans IFO1594 (mycotic stomatitis), Staphylococcus aureus IF013276 (Staphylococcus aureus), and Pseudomonas aeruginosa IF013275 (Pseudomonas) are used as sample bacterias.
As to yeast (Candida albicans), the inoculating bacteria is prepared by incubating the yeast in the same way as Staphylococcus aureus and Pseudomonas at 30° C. and diluting the yeast to about 10^7 cell/ml.
as §2, §3
(§6) 1 ml of each of the above-mentioned dilution series including the test material and 9 ml of the agar medium are introduced to each schales, and the above-mentioned inoculating bacteria was applied on each of the schales at the length of 1 cm.
(§7) Staphylococcus aureus and Pseudomonas were incubated at 35° C., and it was judged whether or not the bacteria had grown two days later. The yeast was incubated at 25° C., and it was judged whether or not the bacteria had grown three days later.
(§8) Each MIC of the obtained 1,2-octanediol, thymol, and the 50:50 mixture by weight of 1,2-octanediol and thymol corresponding the compounding amount of 1,2-octanediol and thymol is plotted to make out the dual minimum inhibitory concentration. Action and effect in case that two kinds of antibacterial materials are compounded can be judged by the dual minimum inhibitory concentration. More specifically, the actions caused by compounding two antibacterial materials are roughly classified into synergistic action, additive action and counteraction. Synergistic action is the action in that two kinds of agent act synergistically, to enhance the antibacterial activity that the agents originally have. The additive action is the action in that the antibacterial activities of the agents are put together. The counteraction is the action in that one agent cancels the antibacterial activity of the other agent.
(§9) The method using dual minimum inhibitory concentration, as shown in FIG. 1 for example, is the method to measure MICs as to material A and Material B at different proportions of them and to judge the result in view of the graph. In this method, a line is drawn to connect MIC (point A) in using only material A to MIC (point B) in using only material B. When the MIC (point C) in using both materials is inside the line, it is judged to be Synergistic action that antibacterial activity was strengthened by the combined use. When the MIC (point D) is on the line, it can be judged to be the additive action. When the MIC (point E) is in the outside of the line, it is judged to be the counteraction that cancels antibacterial activity of one or both of the materials to decrease the antibacterial activity.
as §4

[3] = system: Staphylococcus aureus IF013276; test: Dual minimum inhibitory concentration (agar dilution MIC) of 1,2-octanediol combined with a fragrance component, Staphylococcus aureus; conditions: fragrance component combined with 1,2-octanediol (50:50 by weight mixture); agar medium, 35° C., growth judged after two days
Description: as §5, §1, §2, §3, §6, §7, §8, §9, §4

[4] = system: Pseudomonas aeruginosa IF013275; test: Dual minimum inhibitory concentration (agar dilution MIC) of 1,2-octanediol combined with a fragrance component, Pseudomonas aeruginosa; conditions: fragrance component combined with 1,2-octanediol (50:50 by weight mixture); agar medium, 35° C., growth judged after two days
Description: as §5, §1, §2, §3, §6
Staphylococcus aureus and Pseudomonas were incubated at 35° C., and it was judged whether or not the bacteria had grown two days later. […]
as §4

| Compound | antibacterial effect of mixing with 1,2-octanediol, judged from dual minimum inhibitory concentration diagram, E. coli [1] | antibacterial effect of mixing with 1,2-octanediol, judged from dual minimum inhibitory concentration diagram, C. albicans [2] | antibacterial effect of mixing with 1,2-octanediol, judged from dual minimum inhibitory concentration diagram, S. aureus [3] | antibacterial effect of mixing with 1,2-octanediol, judged from dual minimum inhibitory concentration diagram, P. aeruginosa [4] |
| --- | --- | --- | --- | --- |
| CC(C)=CCCC(C)CCO (stereo not drawn) [citronellol] | ∘ | ∘ | ∘ |  |
| guaiac acetate [reference compound] |  |  | ∘ |  |
| Cc1ccc(C(C)C)c(O)c1 [Thymol] |  | ∘ | ∘ | ∘ |
| CC(=O)O[C@@H]1C[C@H]2CC[C@]1(C)C2(C)C (racemic) [isobornyl acetate, reference compound] |  |  | ∘ |  |
| CC(=O)OC(C)(C)C1CC=C(C)CC1 (stereo not drawn) [terpinyl acetate] |  | ∘ | ∘ |  |
| CC(C)=CCCC(C)CC=O (stereo not drawn) [citronellal] |  | ∘ | ∘ |  |
| C=CCc1ccc(O)c(OC)c1 [Eugenol] |  | ∘ | ∘ | ∘ |
| C=C1CCC2CC1C2(C)C (stereo not drawn) [β-pinene] | Δ | ∘ | ∘ |  |
